Measured values published in patent US6737383B1, “Herbicidal oxadiazolidines” (priority 1999, dated 2004).

Assays:
giant foxtail = assay: Test B pre/postemergence giant foxtail; assay type: in vivo, Setaria faberii
Outline: (§1)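 Test chemicals in a non-phytotoxic solvent mixture with surfactant were sprayed preemergence onto planted seeds and postemergence onto plants 2 to 18 cm tall (1- to 4-leaf stage). After twelve to sixteen days in a greenhouse, injury was visually rated against untreated controls from 0 (no effect) to 10 (complete control).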

bamyardgrass = assay: Test B flood test barnyardgrass; assay type: in vivo, Echinochloa crus-galli; conditions: for Plant response rating, Barnyardgrass (0 to 10 scale, 0 is no effect, 10 is complete control): Rate 62 g/ha, Pre-emergence; for Plant response rating, Barnyardgrass (0 to 10 scale, 0 is no effect, 10 is complete control) / Barnyardgrass plant response rating (0 to 10 scale, 0 is no effect, 10 is complete control): flood test species, visual evaluation after twelve to sixteen days; for Barnyardgrass plant response rating (0 to 10 scale, 0 is no effect, 10 is complete control): Rate 125 g/ha, under heading Pre-emergence
Outline: (§2)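 Plants were grown to the 2-leaf stage before treatment with test chemical, then held in a greenhouse for twelve to sixteen days. Injury was visually rated against untreated controls on a 0–10 scale, where 0 is no effect and 10 is complete control.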

rice = assay: Test B flood test rice; assay type: in vivo, Oryza sativa; conditions: for Plant response rating, Rice (0 to 10 scale, 0 is no effect, 10 is complete control): Rate 62 g/ha, Pre-emergence; for Plant response rating, Rice (0 to 10 scale, 0 is no effect, 10 is complete control) / Rice plant response rating (0 to 10 scale, 0 is no effect, 10 is complete control): flood test species, visual evaluation after twelve to sixteen days; for Rice plant response rating (0 to 10 scale, 0 is no effect, 10 is complete control): Rate 125 g/ha, under heading Pre-emergence
Outline: as §2

soybean = assay: Test B pre/postemergence soybean; assay type: in vivo, Glycine max
Outline: as §1

[1] = Postemergence, Rate 125 g/ha, scale 0 to 10, 0 is no effect, 10 is complete control
[2] = Postemergence, Rate 500 g/ha, scale 0 to 10, 0 is no effect, 10 is complete control
[3] = Preemergence, Rate 62 g/ha, scale of 0 to 10 where 0 is no effect and 10 is complete control
[4] = Preemergence, Rate 125 g/ha, scale 0 to 10, 0 is no effect, 10 is complete control
[5] = Preemergence, Rate 250 g/ha, scale 0 to 10, 0 is no effect, 10 is complete control
[6] = Preemergence, Rate 500 g/ha, scale 0 to 10, 0 is no effect, 10 is complete control
[7] = Rate 62 g/ha, Postemergence, scale 0 to 10, 0 no effect, 10 complete control
[8] = Rate 250 g/ha, Pre-emergence (flood test species), scale 0 to 10, 0 is no effect, 10 is complete control
[9] = Rate 500 g/ha, Pre-emergence section of Table B, 0 to 10 scale (0 no effect, 10 complete control)
[10] = Postemergence, Rate 62 g/ha, scale of 0 to 10, 0 is no effect, 10 is complete control
[11] = Postemergence, Rate 500 g/ha, scale of 0 to 10 where 0 is no effect and 10 is complete control
[12] = Preemergence, Rate 62 g/ha, scale 0 to 10 (0 no effect, 10 complete control)
[13] = Preemergence, Rate 500 g/ha, scale of 0 to 10 where 0 is no effect and 10 is complete control
[14] = Rate 250 g/ha, Postemergence, scale of 0 to 10 where 0 is no effect and 10 is complete control

SMILES	Giant foxtail plant response rating (giant foxtail; [1])	Giant foxtail plant response rating (giant foxtail; [4])	Plant response rating, Barnyardgrass (0 to 10 scale, 0 is no effect, 10 is complete control) (bamyardgrass)	Barnyardgrass plant response rating (0 to 10 scale, 0 is no effect, 10 is complete control) (bamyardgrass)	Barnyardgrass plant response rating (bamyardgrass; [8])	Barnyardgrass plant response rating (bamyardgrass; [9])	Plant response rating, Rice (0 to 10 scale, 0 is no effect, 10 is complete control) (rice)	Rice plant response rating (0 to 10 scale, 0 is no effect, 10 is complete control) (rice)	Rice plant response rating (rice; [8])	Rice plant response rating (rice; [9])	Soybean plant response rating (soybean; [4])	Giant foxtail plant response rating (giant foxtail; [10])	Plant response rating, Giant foxtail (giant foxtail; [11])	Giant foxtail plant response rating (giant foxtail; [12])	Giant foxtail plant response rating (0 to 10 scale) (giant foxtail; Preemergence, Rate 250 g/ha)	Giant foxtail plant response rating (giant foxtail; [13])	Plant response rating, Giant foxtail (giant foxtail; [14])	Soybean plant response rating (soybean; [10])	Plant response rating, Soybean (soybean; [11])	Soybean plant response rating (soybean; [12])	other results
CC(C)C(=O)Cn1c(=O)on(C(=O)N(c2ccc(F)cc2F)C(C)C)c1=O [Compound 486]	7	10	0	0	0	0	0	0	0	0	0	–	–	–	–	–	–	–	–	–	Plant response rating, Giant foxtail (giant foxtail; [2]): 9; Plant response rating, Giant foxtail (giant foxtail; [3]): 9; Giant foxtail plant response rating (giant foxtail; [5]): 10; Giant foxtail plant response rating (giant foxtail; [6]): 10; Giant foxtail plant response rating (giant foxtail; [7]): 2; Soybean plant response rating (soybean; [1]): 4; Plant response rating, Soybean (soybean; [2]): 4; Plant response rating, Soybean (soybean; [3]): 0; Soybean plant response rating (soybean; [5]): 0; Soybean plant response rating (soybean; [6]): 2; Soybean plant response rating (soybean; [7]): 4
CCCCn1c(=O)on(C(=O)N(c2ccccc2)C(C)C)c1=O [Compound 556]	7	9	0	0	0	1	0	0	0	0	0	4	9	9	10	10	9	0	8	0	Soybean plant response rating (0 to 10 scale) (soybean; Preemergence, Rate 250 g/ha): 0; Soybean plant response rating (soybean; [13]): 0; Plant response rating, Soybean (soybean; [14]): 3
CCCCCCn1c(=O)on(C(=O)N(c2ccccc2)C(C)C)c1=O [Compound 558]	2	9	0	0	2	6	–	–	–	0	0	2	8	8	9	10	5	3	4	0	Soybean plant response rating (0 to 10 scale) (soybean; Preemergence, Rate 250 g/ha): 0; Soybean plant response rating (soybean; [13]): 0; Plant response rating, Soybean (soybean; [14]): 4
